Assay results taken from US9434724B2, “Quinuclidines for modulating alpha 7 activity” (priority 2014, dated 2016).

Columns and labels:
[1] = Metabolic stability assay in human liver microsomes (HLM); format: in vitro ADME; conditions: 1 μM
Method: (§1) Protocol 1: Studies were carried out in human and rat liver microsomes (“HLM” and “RLM,” respectively). Human and rat liver microsomes were purchased from BD Gentest. DMSO stocks were prepared for the test compounds. Aliquots of the DMSO solutions were diluted to 0.5 mM by acetonitrile, then further diluted by liver microsomes/buffer to 1.5 μM. 30 μL of 1.5 μM solutions were mixed with 15 μL of 6 mM NADPH, which had been pre-warmed to 37° C., at a final test compound concentration of 1 μM. The plates were kept in a 37° C. water bath for the duration of the experiment. At each time point (0, 5, 15, 30, 45 minutes), 135 μL of acetonitrile was added into corresponding wells. After the final time point was sampled, the plates were shaken at a vibrator (IKA, MTS 2/4) for 10 min (600 rpm/min) and then centrifuged at 5594 g for 15 min (Thermo Multifuge×3R). Aliquots of the supernatant were removed, diluted 1:1 into distilled water, and analyzed by LC-MS/MS. The peak area response ratio to internal standard (PARR) of the compounds at 5, 15, 30, 45 minutes was compared to the PARR at time 0 to determine the percent of test compound remaining at each time point. Half-lives were calculated using Excel software, fitting to a single-phase exponential decay equation.
(§2) Protocol 2: Studies were carried out in human and rat liver microsomes. Buffer solutions were prepared as follows: Buffer A: 1.0 L of 0.1 M monobasic Potassium Phosphate buffer containing 1.0 mM EDTA; Buffer B: 1.0 L of 0.1 M Dibasic Potassium Phosphate buffer containing 1.0 mM EDTA; Buffer C: 0.1 M Potassium Phosphate buffer, 1.0 mM EDTA, pH 7.4 by titrating 700 mL of buffer B with buffer A while monitoring with a pH meter.
(§3) Reference compound (Ketanserin) and test compound spiking solutions were prepared as follows: 500 μM spiking solution: add 10 μL of 10 mM DMSO stock solution into 190 μL ACN; 1.5 μM spiking solution in microsomes (0.75 mg/mL): add 1.5 μL of 500 μM spiking solution and 18.75 μL of 20 mg/mL liver microsomes into 479.75 μL of Buffer C.
(§4) NADPH stock solution (6 mM) was prepared by dissolving NADPH into buffer C.
(§5) Assay procedure: 30 μL of 1.5 μM spiking solution containing 0.75 mg/mL microsomes solution was dispensed to the wells designated for […]. The plate was pre-incubated at 37° C. for 10 minutes. 15 μL of NADPH stock solution (6 mM) was added to the wells designated as Time 45, and the timer was started. At 30 mM, 15 mM, and 5 mM, 15 μL NADPH stock solution (6 mM) was added to the wells, respectively. At the end of incubation (0 mM), 135 μL of ACN containing IS was added to all the wells. Then 15 μL of NADPH stock solution (6 mM) was added to the wells designated as Time 0. After quenching, the reaction mixtures were centrifuged at 3220 g for […]. Following centrifugation, 50 μL of the supernatant was transferred from each well into a 96-well sample plate containing 50 μL of ultra-pure water (Millipore) for LC/MS analysis. The peak area response (PARR) ratio to internal standard of the compounds at 5, 15, 30, and 45 minutes was compared to the PARR at time 0 to determine the percent of test compound remaining at each time point. Half-lives were calculated using Excel software, fitting to a single-phase exponential decay equation.

[2] = Metabolic stability assay in rat liver microsomes (RLM); format: in vitro ADME; conditions: 1 μM
Method: as §1, §2, §3, §4, §5

Human plasma stability = format: in vitro ADME; conditions: plasma
Method: Protocol 1: Studies were carried out in human plasma. All plasma was obtained from Bioreclamation and collected on sodium heparin. Plasma was adjusted to pH 7.4. A DMSO stock was first prepared for the test compound. An aliquot of the DMSO solution was dosed into 1 mL of plasma, which had been pre-warmed to 37° C., at a final test compound concentration of 1 μM. The vials were kept in a benchtop Thermomixer® for the duration of the experiment. Aliquots (100 μL) were taken at each time point (0, 15, 30, 60, and 120 minutes) and added to 96-well plates which had been pre-filled with 300 μL of acetonitrile. Samples were stored at 4° C. until the end of the experiment. After the final time point was sampled, the plate was mixed and then centrifuged at 3,000 rpm for 10 minutes. Aliquots of the supernatant were removed, diluted 1:1 into distilled water, and analyzed by LC-MS/MS. The peak area response ratio to internal standard (PARR) of the compound at 15, 30, 60 and 120 minutes was compared to the PARR at time 0 to determine the percent of test compound remaining at each time point. Half-lives were calculated using GraphPad software, fitting to a single-phase exponential decay equation.
Protocol 2: Studies were carried out in plasma. Plasma was prepared under approval of IRB and IACUC on sodium heparin. The pH of plasma was monitored and used within the range of pH 7.4 to pH 8.0. DMSO stocks were prepared for the test compounds. Aliquots of the DMSO solutions were diluted to 0.05 mM by 0.05 mM Sodium phosphate buffer with 0.5% BSA. Then 10 μL of 0.05 mM solutions were dosed into 90 μL of plasma in duplicates (n=2), which had been pre-warmed to 37° C., at a final test compound concentration of 5 μM. The plates were kept in a 37° C. water bath for the duration of the experiment. At each time point (0, 5, 15, 30, 45, 60, and 120 minutes), 400 μL of acetonitrile was added into corresponding wells. After the final time point was sampled, the plates were shaken at the vibrator (IKA, MTS 2/4) for 10 min (600 rpm/min) and then centrifuged at 5594 g for 15 min (Thermo Multifuge×3R). Aliquots of the supernatant were removed, diluted 1:1 into distilled water, and analyzed by LC-MS/MS. The peak area response ratio to internal standard (PARR) of the compounds at 5, 15, 30, 45, 60, and 120 minutes was compared to the PARR at time 0 to determine the percent of test compound remaining at each time point. Half-lives were calculated using Excel software, fitting to a single-phase exponential decay equation.

CYP1A2 = CYP1A2 (Homo sapiens (Human), UniProt P05177); test: Cytochrome P450 inhibition in human liver microsomes, CYP1A2; conditions: read-out: 1A2 IC50, Protocol 2
Chain of CYP1A2 (P05177 whole entry): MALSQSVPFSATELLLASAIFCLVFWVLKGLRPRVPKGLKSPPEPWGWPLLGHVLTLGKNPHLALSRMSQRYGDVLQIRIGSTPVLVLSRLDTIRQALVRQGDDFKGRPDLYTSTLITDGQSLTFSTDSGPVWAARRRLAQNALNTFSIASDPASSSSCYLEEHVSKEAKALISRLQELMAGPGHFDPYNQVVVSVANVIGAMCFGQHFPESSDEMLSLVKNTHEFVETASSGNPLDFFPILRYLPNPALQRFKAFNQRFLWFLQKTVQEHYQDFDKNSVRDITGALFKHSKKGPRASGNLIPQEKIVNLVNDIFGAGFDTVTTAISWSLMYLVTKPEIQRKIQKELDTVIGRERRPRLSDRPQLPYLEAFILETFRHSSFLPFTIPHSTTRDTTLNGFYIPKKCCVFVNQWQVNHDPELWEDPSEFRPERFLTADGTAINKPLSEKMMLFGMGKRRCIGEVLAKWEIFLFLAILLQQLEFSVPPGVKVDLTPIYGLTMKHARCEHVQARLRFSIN

[3] = target: rat brain nicotinic receptor (α7 NAChR) (Rattus norvegicus (Rat), UniProt Q05941); format: binding
Chain of rat brain nicotinic receptor (α7 NAChR) (Q05941 23-502 limits assumed): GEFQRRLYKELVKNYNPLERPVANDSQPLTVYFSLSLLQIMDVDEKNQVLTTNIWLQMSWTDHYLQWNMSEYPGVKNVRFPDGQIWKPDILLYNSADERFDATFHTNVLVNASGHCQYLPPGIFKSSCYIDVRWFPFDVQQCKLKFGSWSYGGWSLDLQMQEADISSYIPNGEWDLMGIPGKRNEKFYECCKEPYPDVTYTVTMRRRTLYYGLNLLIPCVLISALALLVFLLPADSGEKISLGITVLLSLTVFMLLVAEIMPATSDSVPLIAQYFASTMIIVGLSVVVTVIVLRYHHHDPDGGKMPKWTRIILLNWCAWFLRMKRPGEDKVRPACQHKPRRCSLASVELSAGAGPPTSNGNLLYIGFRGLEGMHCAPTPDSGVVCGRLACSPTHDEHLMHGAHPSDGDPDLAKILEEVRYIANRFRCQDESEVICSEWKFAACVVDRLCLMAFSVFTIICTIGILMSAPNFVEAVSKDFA

CYP2C9 = CYP2C9 (Homo sapiens (Human), UniProt P11712); test: Cytochrome P450 inhibition in human liver microsomes, CYP2C9; conditions: read-out: 2C9 IC50, Protocol 2
Chain of CYP2C9 (P11712 whole entry): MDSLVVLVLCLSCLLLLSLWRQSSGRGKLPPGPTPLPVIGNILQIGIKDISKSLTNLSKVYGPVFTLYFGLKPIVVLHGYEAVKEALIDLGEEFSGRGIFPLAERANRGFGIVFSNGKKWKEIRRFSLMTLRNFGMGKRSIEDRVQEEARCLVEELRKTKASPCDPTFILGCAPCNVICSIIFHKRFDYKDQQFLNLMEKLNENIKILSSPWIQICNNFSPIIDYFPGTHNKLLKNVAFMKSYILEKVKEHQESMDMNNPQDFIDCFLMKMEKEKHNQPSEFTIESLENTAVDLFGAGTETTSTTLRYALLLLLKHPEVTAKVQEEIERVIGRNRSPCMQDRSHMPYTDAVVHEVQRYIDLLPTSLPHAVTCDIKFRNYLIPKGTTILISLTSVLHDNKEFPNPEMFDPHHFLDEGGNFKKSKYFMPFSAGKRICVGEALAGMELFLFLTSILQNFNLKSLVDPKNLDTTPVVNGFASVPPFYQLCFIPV

CYP2C19 = CYP2C19 (Homo sapiens (Human), UniProt P33261); test: Cytochrome P450 inhibition in human liver microsomes, CYP2C19; conditions: read-out: 2C19 IC50, Protocol 2
Chain of CYP2C19 (P33261 whole entry): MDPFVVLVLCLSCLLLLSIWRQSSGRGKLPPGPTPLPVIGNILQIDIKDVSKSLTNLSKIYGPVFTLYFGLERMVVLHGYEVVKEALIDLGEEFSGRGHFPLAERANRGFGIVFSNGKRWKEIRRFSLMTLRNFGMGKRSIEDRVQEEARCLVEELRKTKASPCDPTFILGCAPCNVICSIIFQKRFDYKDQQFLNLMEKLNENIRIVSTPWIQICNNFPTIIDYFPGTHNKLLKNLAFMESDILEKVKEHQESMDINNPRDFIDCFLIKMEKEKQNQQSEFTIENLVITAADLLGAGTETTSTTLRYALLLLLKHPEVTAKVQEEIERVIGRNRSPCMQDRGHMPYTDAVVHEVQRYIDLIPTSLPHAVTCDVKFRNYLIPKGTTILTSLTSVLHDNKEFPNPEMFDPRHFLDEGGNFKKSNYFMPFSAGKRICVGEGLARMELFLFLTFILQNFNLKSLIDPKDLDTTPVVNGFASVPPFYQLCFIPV

CYP3A4 = CYP3A4 (Homo sapiens (Human), UniProt P08684); test: Cytochrome P450 inhibition in human liver microsomes, CYP3A4; conditions: read-out: 3A4 IC50 (Midazolam), substrate midazolam, Protocol 2
Chain of CYP3A4 (P08684 whole entry): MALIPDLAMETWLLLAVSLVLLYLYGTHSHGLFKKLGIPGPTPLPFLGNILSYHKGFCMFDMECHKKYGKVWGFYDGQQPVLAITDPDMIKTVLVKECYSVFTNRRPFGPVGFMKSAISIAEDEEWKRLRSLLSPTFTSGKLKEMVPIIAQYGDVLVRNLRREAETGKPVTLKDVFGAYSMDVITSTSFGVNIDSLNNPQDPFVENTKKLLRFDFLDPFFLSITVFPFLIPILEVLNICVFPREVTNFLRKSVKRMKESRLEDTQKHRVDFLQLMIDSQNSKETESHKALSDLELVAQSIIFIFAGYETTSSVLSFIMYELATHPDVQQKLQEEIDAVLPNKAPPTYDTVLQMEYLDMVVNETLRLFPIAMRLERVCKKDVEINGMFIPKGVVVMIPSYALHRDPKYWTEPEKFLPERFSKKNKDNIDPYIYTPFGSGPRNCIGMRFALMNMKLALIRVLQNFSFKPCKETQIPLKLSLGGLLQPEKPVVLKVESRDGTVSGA

Molecule	HLM ([1]; human, microsomes, pH 7.4)	RLM ([2]; rat, microsomes, pH 7.4)	half-life at 1 μM (Human plasma stability; human, pH 7.4)	IC50 (CYP1A2)	IC50 [3]	Ki [3]	IC50 (CYP2C9)	IC50 (CYP2C19)	% Remaining @ 2 h (Human plasma stability; human, 2 h, 1 μM, pH 7.4)	IC50 (CYP3A4)	HLM ([1]; human, microsomes)	RLM ([2]; rat, microsomes)	T1/2 (Human plasma stability; human)	% Remaining @ 2 h (Human plasma stability; human, 2 h, 5 μM)	HLM ([1]; Protocol No. 1, human liver microsomes)	RLM ([2]; Protocol No. 1, rat liver microsomes)	% Remaining @ 2 h (Human plasma stability; Protocol No. 2, 5 μM, 37° C.)	T1/2 (Human plasma stability; Protocol No. 2, 5 μM, 37° C.)
COc1ccc2c(C(=O)OCC34CCN(CC3)CC4)c[nH]c2c1 [Compound 10, quinuclidin-4-ylmethyl 6-methoxy-1H-indole-3-carboxylate]	<13.608 mL/min/kg	36.72 mL/min/kg	> 120 min	> 10000 nM														
O=C(OCC12CCN(CC1)CC2)c1c[nH]c2ccc(O)cc12 [Compound 15, quinuclidin-4-ylmethyl 5-hydroxy-1H-indole-3-carboxylate]	<13.608 mL/min/kg	25.92 mL/min/kg		> 10000 nM	153 nM	132 nM	> 10000 nM	> 10000 nM										
O=C(OCC12CCN(CC1)CC2)c1c[nH]c2ccccc12 [Compound 1, quinuclidin-4-ylmethyl 1H-indole-3-carboxylate]	<13.608 mL/min/kg	105.84 mL/min/kg	38.5 min	> 10000 nM	31.8 nM	27.6 nM	> 10000 nM	> 10000 nM	11%									
COc1cccc2c(C(=O)OCC34CCN(CC3)CC4)c[nH]c12 [Compound 16, quinuclidin-4-ylmethyl 7-methoxy-1H-indole-3-carboxylate]	<13.608 mL/min/kg	82.6672 mL/min/kg		> 10000 nM	1400 nM	1210 nM	> 10000 nM	> 10000 nM										
COc1ccc2c(C(=O)OCC34CCN(CC3)CC4)c[nH]c2c1 [Compound 17, quinuclidin-4-ylmethyl 6-methoxy-1H-indole-3-carboxylate]	<13.608 mL/min/kg	38.1652 mL/min/kg		> 10000 nM	376 nM	329 nM												
O=C(OCC12CCN(CC1)CC2)c1c[nH]c2cc(F)ccc12 [Compound 11, quinuclidin-4-ylmethyl 6-fluoro-1H-indole-3-carboxylate]	<13.608 mL/min/kg	97.6892 mL/min/kg		> 10000 nM	261 nM	228 nM				> 10000 nM								
Cc1ccc2[nH]cc(C(=O)OCC34CCN(CC3)CC4)c2c1 [Compound 20, quinuclidin-4-ylmethyl 5-methyl-1H-indole-3-carboxylate]	<13.608 mL/min/kg	276.124 mL/min/kg	41.2 min	> 10000 nM	68.1 nM	60.1 nM			14%									
COc1cccc2[nH]cc(C(=O)OCC34CCN(CC3)CC4)c12 [Compound 36, quinuclidin-4-ylmethyl 4-methoxy-1H-indole-3-carboxylate]	<13.608 mL/min/kg	52.02 mL/min/kg	28 min	> 10000 nM	48.9 nM	42.3 nM			2.5%									
N#Cc1ccc2c(C(=O)OCC34CCN(CC3)CC4)c[nH]c2c1 [Compound 28, quinuclidin-4-ylmethyl 6-cyano-1H-indole-3-carboxylate]	<13.608 mL/min/kg	28.4342 mL/min/kg	> 120 min	> 10000 nM			> 10000 nM	> 10000 nM	79%									
Cc1ccc2[nH]cc(C(=O)OCC34CCN(CC3)CC4)c2c1Br [Compound 68, quinuclidin-4-ylmethyl 4-bromo-5-methyl-1H-indole-3-carboxylate]					266 nM	229 nM					3.48 mL/min/kg	1271.39 mL/min/kg	∞	103.13%				
quinuclidin-4-ylmethyl 6-fluoro-4-methoxy-1H-indole-3-carboxylate [Compound 82]					412 nM	357 nM									8 mL/min/kg	433.66 mL/min/kg	48.22%	124.43 min
